From ChEMBL document CHEMBL1201862, “PubChem BioAssay data set” (2004)
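Five concentrations, 48 hours, 96-well plates. The concentration for 50% growth inhibition is given as GI50.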 Active and inactive are the calls of the source. Cut-off read from the data, not from the text of the source: active = GI50 up to about 1.1 µM and inactive = higher.

Legend:
Test in all cases: NCI tumour cell line growth inhibition, 48 h
786-0 = tested on: 786-0
A498 = tested on: A498
A549 = tested on: A549
CAKI-1 = tested on: CAKI-1
CCRF-CEM = tested on: CCRF-CEM
COLO 205 = tested on: COLO 205
DLD-1 = tested on: DLD-1
DMS-114 = tested on: DMS-114
DMS-273 = tested on: DMS-273
EKVX = tested on: EKVX
HCT-116 = tested on: HCT-116
HCT-15 = tested on: HCT-15
HL-60 = tested on: HL-60
HOP-18 = tested on: HOP-18
HOP-92 = tested on: HOP-92
HT-29 = tested on: HT-29
IGROV-1 = tested on: IGROV-1
K562 = tested on: K562
KM-20L2 = tested on: KM-20L2
KM12 = tested on: KM12
LOX IMVI = tested on: LOX IMVI
LXFL 529 = tested on: LXFL 529
M14 = tested on: M14
M19-MEL = tested on: M19-MEL
MOLT-4 = tested on: MOLT-4
Malme-3M = tested on: Malme-3M
NCI-H226 = tested on: NCI-H226
NCI-H23 = tested on: NCI-H23
NCI-H460 = tested on: NCI-H460
NCI-H522 = tested on: NCI-H522
OVCAR-3 = tested on: OVCAR-3
OVCAR-4 = tested on: OVCAR-4
OVCAR-5 = tested on: OVCAR-5
OVCAR-8 = tested on: OVCAR-8
RPMI-8226 = tested on: RPMI-8226
RXF 393 = tested on: RXF 393
RXF 631 = tested on: RXF 631
SF-268 = tested on: SF-268
SF-295 = tested on: SF-295
SF-539 = tested on: SF-539
SK-MEL-28 = tested on: SK-MEL-28
SK-MEL-2 = tested on: SK-MEL-2
SK-MEL-5 = tested on: SK-MEL-5
SK-OV-3 = tested on: SK-OV-3
SN12C = tested on: SN12C
SNB-19 = tested on: SNB-19
SNB-75 = tested on: SNB-75
SNB-78 = tested on: SNB-78
SW-620 = tested on: SW-620
TK-10 = tested on: TK-10
U-251 = tested on: U-251
UACC-257 = tested on: UACC-257
UACC-62 = tested on: UACC-62
UO-31 = tested on: UO-31
XF498 = tested on: XF498
ACHN = tested on: ACHN
HCC 2998 = tested on: HCC 2998
HOP-62 = tested on: HOP-62
SR = tested on: SR

SMILES: FC1OC2OC1C(OCc1ccccc1)C(OCc1ccccc1)C2OCc1ccccc1 (stereo not given)
- GI50 (786-0): 43.2 µM (inactive)
- GI50 (A498): > 100 µM (inactive)
- GI50 (A549): 72.8 µM (inactive)
- GI50 (CAKI-1): 35.5 µM (inactive)
- GI50 (CCRF-CEM): 26.6 µM (inactive)
- GI50 (COLO 205): 61.9 µM (inactive)
- GI50 (DLD-1): 37.9 µM (inactive)
- GI50 (DMS-114): 29.5 µM (inactive)
- GI50 (DMS-273): > 100 µM (inactive)
- GI50 (EKVX): 87.7 µM (inactive)
- GI50 (HCT-116): 25.3 µM (inactive)
- GI50 (HCT-15): 35.7 µM
- GI50 (HL-60): 24.9 µM (inactive)
- GI50 (HOP-18): 24.3 µM (inactive)
- GI50 (HOP-92): 15.3 µM (inactive)
- GI50 (HT-29): 34.8 µM (inactive)
- GI50 (IGROV-1): 34.6 µM (inactive)
- GI50 (K562): 25.8 µM (inactive)
- GI50 (KM-20L2): 42.8 µM (inactive)
- GI50 (KM12): 49.1 µM (inactive)
- GI50 (LOX IMVI): 43.8 µM (inactive)
- GI50 (LXFL 529): 34 µM (inactive)
- GI50 (M14): 28.1 µM (inactive)
- GI50 (M19-MEL): 29.8 µM (inactive)
- GI50 (MOLT-4): 22.8 µM (inactive)
- GI50 (Malme-3M): 48.3 µM (inactive)
- GI50 (NCI-H226): 77.3 µM (inactive)
- GI50 (NCI-H23): > 100 µM (inactive)
- GI50 (NCI-H460): > 100 µM (inactive)
- GI50 (NCI-H522): > 10 µM (inactive)
- GI50 (OVCAR-3): 36.8 µM (inactive)
- GI50 (OVCAR-4): 34.1 µM (inactive)
- GI50 (OVCAR-5): > 100 µM (inactive)
- GI50 (OVCAR-8): 35.4 µM (inactive)
- GI50 (RPMI-8226): 22.9 µM (inactive)
- GI50 (RXF 393): > 100 µM (inactive)
- GI50 (RXF 631): 71.1 µM (inactive)
- GI50 (SF-268): 32.4 µM (inactive)
- GI50 (SF-295): > 100 µM (inactive)
- GI50 (SF-539): > 100 µM (inactive)
- GI50 (SK-MEL-28): 33.4 µM (inactive)
- GI50 (SK-MEL-2): 71.8 µM (inactive)
- GI50 (SK-MEL-5): 45.6 µM (inactive)
- GI50 (SK-OV-3): > 100 µM (inactive)
- GI50 (SN12C): 58.6 µM (inactive)
- GI50 (SNB-19): 84.9 µM (inactive)
- GI50 (SNB-75): 34.7 µM (inactive)
- GI50 (SNB-78): 61.1 µM (inactive)
- GI50 (SW-620): 40.6 µM (inactive)
- GI50 (TK-10): 52.8 µM (inactive)
- GI50 (U-251): 88.3 µM (inactive)
- GI50 (UACC-257): 35.5 µM (inactive)
- GI50 (UACC-62): 30.1 µM (inactive)
- GI50 (UO-31): 36.1 µM (inactive)
- GI50 (XF498): 23.6 µM (inactive)

SMILES: C=CCn1c(=O)c(C(=O)NC(=O)OCC)cn(C2CCCCC2)c1=O
- GI50 (786-0): > 100 µM (inactive)
- GI50 (A498): > 100 µM (inactive)
- GI50 (A549): > 100 µM (inactive)
- GI50 (ACHN): > 100 µM (inactive)
- GI50 (CAKI-1): > 100 µM (inactive)
- GI50 (CCRF-CEM): > 100 µM (inactive)
- GI50 (COLO 205): > 100 µM (inactive)
- GI50 (DLD-1): > 100 µM (inactive)
- GI50 (DMS-114): > 100 µM (inactive)
- GI50 (DMS-273): > 100 µM (inactive)
- GI50 (EKVX): > 100 µM (inactive)
- GI50 (HCC 2998): > 100 µM (inactive)
- GI50 (HCT-116): > 100 µM (inactive)
- GI50 (HCT-15): > 100 µM
- GI50 (HL-60): > 100 µM (inactive)
- GI50 (HOP-18): > 100 µM (inactive)
- GI50 (HOP-62): > 100 µM (inactive)
- GI50 (HOP-92): > 100 µM (inactive)
- GI50 (HT-29): > 100 µM (inactive)
- GI50 (IGROV-1): > 100 µM (inactive)
- GI50 (K562): > 100 µM (inactive)
- GI50 (KM-20L2): > 100 µM (inactive)
- GI50 (KM12): > 100 µM (inactive)
- GI50 (LOX IMVI): > 100 µM (inactive)
- GI50 (LXFL 529): > 100 µM (inactive)
- GI50 (M14): > 100 µM (inactive)
- GI50 (MOLT-4): > 100 µM (inactive)
- GI50 (Malme-3M): > 100 µM (inactive)
- GI50 (NCI-H226): > 100 µM (inactive)
- GI50 (NCI-H23): > 100 µM (inactive)
- GI50 (NCI-H460): > 100 µM (inactive)
- GI50 (OVCAR-3): > 100 µM (inactive)
- GI50 (OVCAR-4): > 100 µM (inactive)
- GI50 (OVCAR-5): > 100 µM (inactive)
- GI50 (OVCAR-8): > 100 µM (inactive)
- GI50 (RPMI-8226): > 100 µM (inactive)
- GI50 (RXF 631): > 100 µM (inactive)
- GI50 (SF-295): > 100 µM (inactive)
- GI50 (SF-539): > 100 µM (inactive)
- GI50 (SK-MEL-28): > 100 µM (inactive)
- GI50 (SK-MEL-2): > 100 µM (inactive)
- GI50 (SK-MEL-5): > 100 µM (inactive)
- GI50 (SK-OV-3): > 100 µM (inactive)
- GI50 (SN12C): > 100 µM (inactive)
- GI50 (SNB-19): > 100 µM (inactive)
- GI50 (SNB-75): > 100 µM (inactive)
- GI50 (SNB-78): > 100 µM (inactive)
- GI50 (SR): > 100 µM (inactive)
- GI50 (SW-620): > 100 µM (inactive)
- GI50 (TK-10): > 100 µM (inactive)
- GI50 (U-251): > 100 µM (inactive)
- GI50 (UACC-257): > 100 µM (inactive)
- GI50 (UACC-62): > 100 µM (inactive)
- GI50 (UO-31): > 100 µM (inactive)
- GI50 (XF498): > 100 µM (inactive)
